# From patent publication US12622890B2, “Use of the active compound in the prevention or treatment of ovarian dysfunction diseases” (INSTITUTE OF BIOPHYSICS, CHINESE ACADEMY OF SCIENCES, priority 2022, dated 2026)
# How the values were obtained:
# POI model mice = assay: Estrous cycle observation by vaginal smear cytology in POI model mice; format: in vivo
# POI mice [1] = assay: Serum estradiol (E2) level in POI mice; format: in vivo; conditions: for E2: serum, after 12 days 100 mg/kg/d oral
# Excerpt: (§1) Biomarkers mentioned herein, such as follicle stimulating hormone (FSH), estrogen (e.g., E2), and superoxide dismutase (SOD), malondialdehyde (MDA), relative reactive oxygen species (ROS), and lactate dehydrogenase (LDH), etc., can be detected using methods commonly known in the field. Detection methods typically cover methods that quantify the level of a biomarker in a sample (quantitative methods). Which of the following methods are suitable for qualitative and/or quantitative detection of biomarkers is generally known to those skilled in the field. Samples can be conveniently measured, for example for proteins using immunoassays such as ELISA, RIA, etc., which are commercially available.
# (§2) After 12 days of administration, half of the mice in each group were sacrificed, and their blood was collected and kept still. The serum was separated after centrifugation at 4500 rpm and stored in a refrigerator at −80° C. for future use to measure levels of follicle stimulating hormone, estrogen, and the indexes of oxidative stress such as superoxide dismutase (SOD) and malondial dehyde (MDA).
# as §2, with “kept in” for “kept”, “levals” for “levels”, “malondialdehyde” for “malondial dehyde”
# [2] = Body weight of POI model mice before modeling, after modeling and after treatment; format: in vivo; conditions: for Body weight before modeling: D 0, 100 mg/kg/d oral; for Body weight after modeling: D 7, 100 mg/kg/d oral; for Body weight after treatment: D 13, 100 mg/kg/d oral
# Description: Animal model establishment: A total of 34 C57 female mice (8-week-old) were selected and intraperitoneally injected with the ratio of 120 mg/kg cyclophosphamide (SIGMA) and 30 mg/kg Busulfan (Aladdin) once a day for 1 week at the dose of 0.1 mL/10 g to establish the model of POI.
# Grouping: 34 POI model mice were randomly divided into four groups: sodium fumarate (SF) treatment group (n=9), hyodeoxycholic acid (HDCA) treatment group (n=8), sodium fumarate plus hyodeoxycholic acid (mass ratio 1:1) combination (SF+HDCA) treatment group (n=8) and normal saline (Vehicle) group (n=9). Mice in the SF group were given oral administration of SF at the ratio of 100 mg/kg/d body weight, mice in the HDCA group were given oral administration of HDCA at the ratio of 100 mg/kg/d body weight, and mice in the combination group were given oral administration of SF and HDCA at the ratio of 100 mg/kg/d body weight. SF and HDCA were dissolved with 0.9% normal saline when used. Mice in the vehicle group were given the same amount of normal saline orally. All the mice were treated consecutively for 12 days.
# Body weight were recorded at three time points, before modeling (at the beginning of treatment), after modeling and after treatment.
# Animal model establishment: A total of 24 C57 mice (8-week-old) were selected and intraperitoneally injected with the ratio of 120 mg/kg cyclophosphamide and 30 mg/kg Busulfan once a day for 1 week at the dose of 0.1 mL/10 g to establish the model of POI.
# Grouping: 24 POI model mice were randomly divided into four groups: dimethyl fumarate (DMF) treatment group (n=5), hyodeoxycholic acid (HDCA) treatment group (n=6), dimethyl fumarate plus hyodeoxycholic acid (mass ratio=1:1) combination (DMF+HDCA) treatment group (n=7) and normal saline (Vehicle) group (n=6). Mice in the DMF treatment group were orally administrated at the ratio of 100 mg/kg/d body weight. Mice in the HDCA treatment group were given oral administration of HDCA at the ratio of 100 mg/kg/d body weight, and mice in the combination group were given oral administration of DMF and HDCA at the ratio of 100 mg/kg/d body weight. Once daily, DMF and HDCA were dissolved in 0.9% normal saline when used. Mice in normal saline group were given the same amount of normal saline orally every day. The drug was administered for 12 days.
# Body weight were recorded at three time points, before modeling (at the beginning of treatment, the 0th day), after modeling (the 7th day) and after treatment (the 13th day).
# The body weight of POI model mice of each group was measured before modeling, after modeling and after treatment.
# POI mice [3] = assay: Serum relative reactive oxygen species (ROS) level; format: in vivo
# Excerpt: as §1
# (§3) The oxidative stress hypothesis believes that the reduction of antioxidant components in the body leads to the weakening of the ability to remove free radicals, which leads to oxidative damage of biological macromolecules, and the imbalance of cellular oxidative and antioxidant functions, which leads to oxidative stress, and then leads to disease and aging. Oxygen free radicals act on unsaturated fatty acids of lipids to generate lipid peroxides, including malondialdehyde (MDA) and so on. The antioxidant defense system of scavenging free radicals includes superoxide dismutase (SOD) and so on. Recently, oxidative stress has been reported to be associated with ovarian aging and POI in primates. Therefore, this embodiment examined the effects of DMF, HDCA, and DMF+HDCA on oxidative stress in mice with premature ovarian failure, and the results are shown in Table 5, FIGS. 9 to 12.
# POI mice [4] = assay: Serum lactate dehydrogenase (LDH) level; format: in vivo
# Excerpt: as §1
# POI mice [5] = assay: Serum malondialdehyde (MDA) level, oxidative stress; format: in vivo
# Excerpt: as §1, §2
# as §2, with “kept in” for “kept”, “levals” for “levels”, “malondialdehyde” for “malondial dehyde”
# as §3
# ovarian tissues = assay: RNA transcription level sequencing of ovarian tissues, differentially expressed genes; format: in vivo, mice; conditions: ovarian tissue RNA sequencing, FC>2, Q<0.05
# Description: Mice were sacrificed after various treatments, and ovarian tissues were taken, snap-frozen in liquid nitrogen, stored at −80° C., and sent to Annoroad for RNA transcription level sequencing. Bioinformatics analysis and mapping were performed on the sequencing results. […] The differential genes of the three treatment groups were intersectioned. […] These differential gene sets were then subjected to Gene Ontology function (GO) enrichment (FC>2, Q<0.05) (FIG. 16) and signaling pathway (KEGG) analysis mapping (FIG. 17), respectively.
# POI mice [6] = assay: Serum superoxide dismutase (SOD) level, oxidative stress; format: in vivo
# Excerpt: as §1, §2
# as §2, with “kept in” for “kept”, “levals” for “levels”, “malondialdehyde” for “malondial dehyde”
# as §3
# [7] = Example 2, during drug administration, FIG. 5B
# [8] = serum, POI mice after treatment
smiles,measurement,setting,value
"C[C@H](CCC(=O)O)[C@H]1CC[C@H]2[C@@H]3C[C@H](O)[C@@H]4C[C@H](O)CC[C@]4(C)[C@H]3CC[C@]12C [HDCA, hyodeoxycholic acid, reference compound]",Effect on mice with premature ovarian failure (conclusion from estrous cycle),POI model mice; Example 2,preventive and therapeutic effects
same,Average rate of diestrum (D) in estrous cycle,POI model mice; [7],52.08%
same,Average rate of estrous (E) stage in estrous cycle,POI model mice; [7],6.25%
same,Average rate of metestrum (M) in estrous cycle,POI model mice; [7],12.50%
same,Average rate of proestrous (P) in estrous cycle,POI model mice; [7],29.17%
same,Number of mice with estrous cycle recovered,"POI model mice; Example 2, 12 days observation, DMF n=5, HDCA n=6, DMF and HDCA n=7",3 mice
same,Serum E2 level compared with the normal saline group,"POI mice [1]; Example 1, FIG. 7",tendency to increase
same,Serum E2 level compared with the normal saline group,"POI mice [1]; Example 2, FIG. 8, not statistically significant",certain tendency to decrease
same,E2,POI mice [1]; Example 1 POI mice,49.69 ± 7.11 pg/mL
same,E2,POI mice [1]; Example 2 POI mice,42.96 ± 14.28 pg/mL
same,Body weight before modeling,[2]; Example 1 POI mice,18.79 ± 0.80 g
same,Body weight after modeling,[2]; Example 1 POI mice,17.69 ± 1.03 g
same,Body weight after treatment,[2]; Example 1 POI mice,17.96 ± 1.20 g
same,Weight recovery after chemotherapy,"[2]; Example 1 POI mice, FIG. 2A",significantly beneficial
same,Body weight before modeling,[2]; Example 2 POI mice,18.32 ± 1.61 g
same,Body weight after modeling,[2]; Example 2 POI mice,16.31 ± 2.02 g
same,Body weight after treatment,[2]; Example 2 POI mice,17.10 ± 2.24 g
same,Weight recovery after chemotherapy,"[2]; Example 2 POI mice, FIG. 2B",significantly beneficial
same,ROS levels compared with the normal saline group,POI mice [3]; FIG. 11,significantly reduced
same,ROS,"POI mice [3]; relative ROS level in serum, POI mice after treatment",4.589 ± 0.599
same,Activity of LDH compared with the normal saline group,POI mice [4]; FIG. 12,reduced to some extent
same,LDH,POI mice [4]; [8],2821.58 ± 318.30 U/mL
same,MDA activity compared with the normal saline group,"POI mice [5]; FIG. 10, no significant difference",reduced to some extent
same,MDA,POI mice [5]; [8],2.86 ± 4.39 nmol/mL
same,Number of genes down-regulated compared with the control group,ovarian tissues,4749 genes
same,Number of genes up-regulated compared with the control group,ovarian tissues,1898 genes
same,Activity of SOD compared with the normal saline group,"POI mice [6]; FIG. 9, difference not significant",increased
same,SOD,POI mice [6]; [8],14.59 ± 5.65 U/mL
